Residue numbers refer to the chain shown, from its start. Structures can show the parent of a compound that is named as a salt.
Tests used:
Format in all cases: cell-based
[1] = biological target: T1, TP^Δ328 (Homo sapiens, UniProt P21731); assay: Intracellular calcium mobilization, HEK.TP^Δ328 cells; conditions: HEK.TP^Δ328
T1 construct: expressed in transfected cells
T1 sequence (P21731 1-328): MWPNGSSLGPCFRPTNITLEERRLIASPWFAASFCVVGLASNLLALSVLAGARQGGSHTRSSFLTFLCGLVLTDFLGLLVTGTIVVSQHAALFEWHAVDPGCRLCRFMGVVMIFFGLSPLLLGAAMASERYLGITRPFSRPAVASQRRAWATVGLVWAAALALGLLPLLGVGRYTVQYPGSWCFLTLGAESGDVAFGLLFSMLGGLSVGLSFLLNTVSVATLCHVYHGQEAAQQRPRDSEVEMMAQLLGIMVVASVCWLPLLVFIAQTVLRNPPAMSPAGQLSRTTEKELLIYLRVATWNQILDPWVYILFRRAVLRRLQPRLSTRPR
Experimental: (§1) Measurement of intracellular calcium mobilization ([Ca^2+]i) in FURA2/AM preloaded HEK 293 cell lines (2 × 10^6 cells/dish), each transiently co-transfected with pADVA (10 μg), and pCMV:Gαq (25 μg), was carried out as previously described. To investigate the effect of GRK2/βARK1 on TP-mediated [Ca^2+]i mobilization, HEK.TPα or HEK.TPβ cells (2 × 10^6 cells/dish) were co-transfected with pADVA (10 μg), pCMV:Gαq (25 μg) along with pRK5:βARK1^495–689 (25 μg), encoding a dominant negative form of GRK2/βARK1[39]. Approximately 48 h post-transfection, cells were harvested by scraping, washed twice in ice-cold PBS and resuspended in HBSSHB (modified Ca^2+/Mg^2+-free Hank's buffered salt solution, containing […], pH 7.67, 0.1% bovine serum albumin (BSA)) buffer at 10^7 cells/ml and incubated in the dark with 5 μM FURA2/AM for 45 min at 37 °C. Cells were collected by centrifugation (900×g, 5 min), washed once in an equal volume of HBSSHB, and were finally resuspended in HBSSHB buffer at 10^7 cells/ml and kept at room temperature in the dark for 40 min. For each measurement of [Ca^2+]i mobilization, aliquots of cells were diluted to 0.825 × 10^6 cells/ml in HBSSHB, 1 mM CaCl2 and FURA2 fluorescence was recorded (2 ml aliquots of cells) at 37^ °C with gentle stirring with a Perkin Elmer-Cetus LS50-B spectrofluorometer at excitation wavelengths of 340 nm and 380 nm and emission wavelength of 510 nm, respectively.
(§2) Cells were stimulated with the TP agonist U46619 (1 μM) and changes in [Ca^2+]i mobilization were monitored as a function of time. To assess agonist-mediated homologous desensitization, cells (0.825 × 10^6 cells/ml; 2 ml per assay) were stimulated with 1 μM U46619 (Primary stimulation) or, as a control, with the vehicle for 4 min; thereafter, cells were collected by centrifugation (900×g, 5 min); were washed twice in 2 ml HBSSHB, 1 mM CaCl2; and finally resuspended in 2 ml HBSSHB,1 mM CaCl2 and were left to recover over various time intervals (ranging from 0 to 60 min); thereafter, cells re-stimulated with 1 μM U46619 (Secondary stimulation) and changes in [Ca^2+]i mobilization were monitored as a function of time. To assess the role of protein kinase (PK) A, PKC or PKG on U46619-mediated desensitization of TPα signalling, cells were pre-incubated with the PKA inhibitor H-89 (10 μM), the PKC inhibitor GF 109203X (50 nM) or the PKG inhibitor KT 5823 (50 nM), for 15 min and respective kinase inhibitors were maintained throughout the primary/secondary U46619-stimulations and during the washes.
(§3) The vehicle had no effect on U46619-mediated [Ca^2+]i mobilization. Calibration of the signal was performed in each sample by adding 0.2% Triton X-100 to obtain the maximal fluorescence ratio (Rmax) and then 1 mM EGTA to obtain the minimal fluorescence ratio (Rmin). The ratio of the fluorescence at 340 nm to that at 380 nm is a measure of [Ca^2+]i, which assumes a Kd of 225 nM Ca^2+ for FURA2/AM. The results presented in the figures are representative data from at least three or four independent experiments and are plotted as changes in Ca^2+i mobilized (Δ[Ca^2+]i (nM)) as a function of time (s) upon ligand stimulation. Changes in [Ca^2+]i mobilization were determined by measuring peak rises in [Ca^2+]i mobilized (Δ[Ca^2+]i) and were calculated as mean changes in Δ[Ca^2+]i ± S.E.M. (nM).

[2] = biological target: T2, TPα (Homo sapiens, UniProt P21731); assay: Intracellular calcium mobilization, HEK.TPα cells; conditions: for secondary U46619 [Ca2+]i response relative to primary response: TPα
T2 construct: expressed in transfected cells
T2 sequence (P21731 1-343): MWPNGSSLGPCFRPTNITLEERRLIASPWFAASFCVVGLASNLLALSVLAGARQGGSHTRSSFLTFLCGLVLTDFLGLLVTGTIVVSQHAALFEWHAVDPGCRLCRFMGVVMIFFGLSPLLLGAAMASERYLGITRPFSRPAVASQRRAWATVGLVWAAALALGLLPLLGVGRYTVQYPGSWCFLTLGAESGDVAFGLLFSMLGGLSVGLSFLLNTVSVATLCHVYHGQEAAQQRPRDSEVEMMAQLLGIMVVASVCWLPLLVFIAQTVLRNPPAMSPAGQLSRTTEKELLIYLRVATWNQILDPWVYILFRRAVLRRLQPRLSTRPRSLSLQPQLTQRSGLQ
Experimental: as §1
as §2, with “Cells were stimulated with the TP agonist U46619 (1 μM) and changes in [Ca^2+]i mobilization were monitored as a function of time.” left out
as §3

[3] = biological target: T3, TPβ (Homo sapiens, UniProt P21731); assay: Intracellular calcium mobilization, HEK.TPβ cells; conditions: for effect of inhibitor on U46619-induced [Ca2+]i mobilization by TPβ: inhibitor pre-incubated 15 min, primary/secondary U46619 stimulation
T3 construct: expressed in transfected cells
T3 sequence (P21731 1-407 isoform P21731-2): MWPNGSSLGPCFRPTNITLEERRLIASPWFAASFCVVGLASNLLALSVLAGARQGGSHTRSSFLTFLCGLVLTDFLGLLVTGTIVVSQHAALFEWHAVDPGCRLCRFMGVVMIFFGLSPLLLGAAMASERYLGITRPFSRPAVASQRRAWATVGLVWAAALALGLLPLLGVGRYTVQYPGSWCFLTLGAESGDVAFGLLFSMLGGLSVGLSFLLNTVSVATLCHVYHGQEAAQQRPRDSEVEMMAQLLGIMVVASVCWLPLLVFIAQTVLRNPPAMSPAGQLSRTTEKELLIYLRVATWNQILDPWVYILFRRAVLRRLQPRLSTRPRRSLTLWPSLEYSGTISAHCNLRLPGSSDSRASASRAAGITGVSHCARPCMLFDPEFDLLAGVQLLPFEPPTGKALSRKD

[4] = biological target: T3, TPβ; assay: Intracellular calcium mobilization, HEK.TPβ cells
Experimental: as §1, §2, §3

[5] = biological target: T4, TPα^S331A (Homo sapiens, UniProt P21731, S331A); assay: Agonist-mediated TP phosphorylation in whole cells, HEK.TPα^S331A
T4 construct: expressed in transfected cells
T4 sequence (P21731 1-343 S331A): T2 sequence (P21731 1-343) with S331A
Experimental: (§4) Agonist-mediated TP phosphorylation in whole cells (1.8–2 × 10^6 cells/10 cm dish) was performed essentially as previously described. Briefly, cells were transiently co-transfected with pADVA (10 μg), pCMV:Gαq (25 μg) plus pcDNA:βArrestin2 (25 μg) approximately 48 h prior to labelling. Thereafter, cells were washed once in phosphate-free DMEM, 10% dialysed FBS and were metabolically labelled for 60 min in the same medium (2 ml/10 cm dish) containing 100 μCi/ml [^32P] orthophosphate (8000–9000 Ci/mmol) at 37 °C, 5% CO2. Where appropriate, the PKG kinase inhibitor KT 5823 (50 nM) or its vehicle was added during the labelling period. Thereafter, U46619 (1 μM) or an equivalent volume of vehicle (0.01% ethanol in HBS; 20 μl) were added and cells were incubated for 10 min at 37 °C, 5% CO2. Reactions were terminated by transferring the dishes to ice and aspirating the labelled medium and HA-epitope tagged TP receptors were processed and immunoprecipitated using the anti-HA 101R antibody as previously described. Electroblots were then exposed to Xomat XAR (Kodak) film to detect ^32P-labelled proteins. Thereafter, blots were subject to phosphorimage analysis, and the intensities of agonist-induced phosphorylation were expressed in arbitrary units relative to basal (vehicle-stimulated) levels. In parallel experiments, cells were incubated under identical conditions in the absence of [^32P] orthophosphate; HA-tagged TP receptors were immunoprecipitated from the same cell lines using the anti-HA 101R antibody and immunoblots were screened using the anti-HA 3F10 horseradish peroxidase-conjugated antibody.

[6] = biological target: T2, TPα; assay: Agonist-mediated TP phosphorylation in whole cells, HEK.TPα
Experimental: as §4

[7] = 1 μM U46619 plus 50 nM KT 5823 pre-incubation

Question: `CN(C)CCCn1cc(C2=C(c3c[nH]c4ccccc34)C(=O)NC2=O)c2ccccc21` [GF 109203X, 2-[1-(3-dimethylaminopropyl)-1H-indol-3-yl]-3-(1H-indol-3-yl)-maleimide] was tested. Which “Δ[Ca2+]i, U46619-induced” value ([1]; primary 1 μM U46619 in presence of 50 nM GF 109203X) did it give?
Answer: 200 ± 9.8 nM

Question: And the “Δ[Ca2+]i, U46619-induced” value ([1]; secondary 1 μM U46619 at 15 min in presence of 50 nM GF 109203X)?
Answer: 200 ± 12 nM

Question: What about the “Δ[Ca2+]i, U46619-induced” value ([2]; HEK.TPα, primary 1 μM U46619 in presence of 50 nM GF 109203X) of the same compound?
Answer: 250 ± 12 nM

Question: What about the “Δ[Ca2+]i, U46619-induced” value ([2]; HEK.TPα, secondary 1 μM U46619 at 15 min in presence of 50 nM GF 109203X) of the same compound?
Answer: 90 ± 8 nM

Question: What about the “secondary U46619 [Ca2+]i response relative to primary response” value ([2]; in presence of GF 109203X (50 nM)) of the same compound?
Answer: 36%

Question: Which results are given for `Cl.Cl.O=S(=O)(NCCNCC=Cc1ccc(Br)cc1)c1cccc2cnccc12` [H-89, N-[2-((p-bromocinnamyl)amino)ethyl]-5-isoquino-linesulfonamide, 2HCL]?
Answer: effect of inhibitor on [Ca2+]i mobilization in response to primary or secondary U46619 ([1]; H-89 10 μM pre-incubation): no significant effect; Δ[Ca2+]i, U46619-induced ([1]; primary 1 μM U46619 in presence of 10 μM H-89): 180 ± 10 nM; Δ[Ca2+]i, U46619-induced ([1]; secondary 1 μM U46619 at 15 min in presence of 10 μM H-89): 165 ± 8 nM; effect of inhibitor on [Ca2+]i mobilization in response to primary or secondary U46619 ([2]; HEK.TPα, H-89 10 μM pre-incubation): no significant effect; Δ[Ca2+]i, U46619-induced ([2]; HEK.TPα, primary 1 μM U46619 in presence of 10 μM H-89): 220 ± 9.2 nM; Δ[Ca2+]i, U46619-induced ([2]; HEK.TPα, secondary 1 μM U46619 at 15 min in presence of 10 μM H-89): 0 nM

Question: What does the source list for `COC(=O)[C@@H](N)CCCNC(N)=N[N+](=O)[O-]` [L-NAME, NG-Nitro-L-arginine Methyl Ester, Hydrochloride]?
Answer: effect of inhibitor on U46619-induced [Ca2+]i mobilization by TPβ [3]: no significant effect; Δ[Ca2+]i, U46619-induced ([4]; primary 1 μM U46619 in presence of 1 μM L-NAME): 220 ± 40 nM; Δ[Ca2+]i, U46619-induced ([4]; secondary 1 μM U46619 at 15 min in presence of 1 μM L-NAME): 0 nM; Δ[Ca2+]i, U46619-induced ([2]; HEK.TPα, primary 1 μM U46619 in presence of 1 μM L-NAME): 200 ± 9 nM; Δ[Ca2+]i, U46619-induced ([2]; HEK.TPα, secondary 1 μM U46619 at 15 min in presence of 1 μM L-NAME): 80 ± 5.9 nM

Question: Which “U46619-mediated TPα^S331A phosphorylation relative to basal (vehicle)” value [5, 7] does the source give for `COC(=O)[C@@]1(OC)C[C@H]2O[C@]1(C)n1c3ccccc3c3c4c(c5c6ccccc6n2c5c31)C(=O)N(C)C4` [KT 5823] here?
Answer: 1.5 fold

Question: And the “effect on agonist-induced phosphorylation of TPα^S331A” value ([5]; preincubation with KT 5823)?
Answer: not significantly affected

Question: And the “effect of inhibitor on U46619-induced [Ca2+]i mobilization by TPβ” value [3]?
Answer: no significant effect

Question: What about the “Δ[Ca2+]i, U46619-induced” value ([3]; primary 1 μM U46619 in presence of 50 nM KT 5823) of the same compound?
Answer: 170 ± 25 nM

Question: What about the “Δ[Ca2+]i, U46619-induced” value ([3]; secondary 1 μM U46619 at 15 min in presence of 50 nM KT 5823) of the same compound?
Answer: 0 nM

Question: And the “U46619-mediated TPα phosphorylation relative to basal (vehicle)” value [6, 7]?
Answer: 2 fold

Question: What about the “reduction of agonist-induced TPα phosphorylation” value ([6]; pre-incubation with KT 5823, 1 μM U46619) of the same compound?
Answer: 2.5 fold

Question: What about the “Δ[Ca2+]i, U46619-induced” value ([2]; HEK.TPα, primary 1 μM U46619 in presence of 50 nM KT 5823) of the same compound?
Answer: 160 ± 7.9 nM

Question: What about the “Δ[Ca2+]i, U46619-induced” value ([2]; HEK.TPα, secondary 1 μM U46619 at 15 min in presence of 50 nM KT 5823) of the same compound?
Answer: 60 ± 7 nM

Question: What about the “secondary U46619 [Ca2+]i response relative to primary response” value ([2]; in presence of KT 5823 (50 nM)) of the same compound?
Answer: approximately 38%

Question: What does the source list for `O=C1C(Nc2ccccc2)=CC(=O)c2ncccc21` [LY 83583, 6-Anilino-5,8-quinolinequinone]?
Answer: effect of inhibitor on U46619-induced [Ca2+]i mobilization by TPβ [3]: no significant effect; Δ[Ca2+]i, U46619-induced ([4]; primary 1 μM U46619 in presence of 1 μM LY 83583): 185 ± 26 nM; Δ[Ca2+]i, U46619-induced ([4]; secondary 1 μM U46619 at 15 min in presence of 1 μM LY 83583): 0 nM; Δ[Ca2+]i, U46619-induced ([2]; HEK.TPα, primary 1 μM U46619 in presence of 1 μM LY 83583): 210 ± 12 nM; Δ[Ca2+]i, U46619-induced ([2]; HEK.TPα, secondary 1 μM U46619 at 15 min in presence of 1 μM LY 83583): 58 ± 6 nM

From paper PMC2680961, “Homologous desensitization of signalling by the alpha (α) isoform of the human thromboxane A2 receptor: A specific role for nitric oxide signalling” (Biochimica et Biophysica Acta, 2007)
